Experimental data as given in patent publication US20020028938A1, “Prostaglandin endoperoxide H synthase biosynthesis inhibitors” (priority 1997, published 2002).

Key:
[1] = target: T1, human amnionic whole cell cyclooxygenase-2 (WISH cells) (Homo sapiens, UniProt P35354); test: IL-1β induced PGE2 production in WISH cells; type: cell-based; details: for IC50: read-out: Wish IC50 (parenthetical value)
T1 construct: endogenous in cells; host or cells: human amnionic WISH cells, induced with IL-1beta
T1 sequence (P35354 18-604): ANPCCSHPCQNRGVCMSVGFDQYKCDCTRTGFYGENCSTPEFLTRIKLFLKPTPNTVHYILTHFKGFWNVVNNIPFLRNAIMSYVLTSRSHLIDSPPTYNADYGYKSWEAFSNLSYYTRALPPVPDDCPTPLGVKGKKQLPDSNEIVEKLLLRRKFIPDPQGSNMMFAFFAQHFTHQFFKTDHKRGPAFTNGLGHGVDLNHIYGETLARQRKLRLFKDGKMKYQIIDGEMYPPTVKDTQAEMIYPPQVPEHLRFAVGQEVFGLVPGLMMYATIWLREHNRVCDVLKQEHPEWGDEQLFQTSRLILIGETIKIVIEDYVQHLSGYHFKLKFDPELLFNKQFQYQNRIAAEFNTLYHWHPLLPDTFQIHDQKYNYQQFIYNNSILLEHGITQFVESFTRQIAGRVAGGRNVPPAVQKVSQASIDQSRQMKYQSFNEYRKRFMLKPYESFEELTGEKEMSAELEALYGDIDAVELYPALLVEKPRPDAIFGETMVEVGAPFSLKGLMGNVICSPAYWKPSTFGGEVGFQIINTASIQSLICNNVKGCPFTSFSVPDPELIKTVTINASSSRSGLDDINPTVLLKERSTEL
Summary of the method: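 PGE2 was quantified by enzyme immunoassay (optical density read) against standards made up in the matching medium. WISH cells at 80% confluence, washed and placed in serum-free Neuman-Tytell medium, received 5 ng/ml IL-1β plus test compound or DMSO vehicle (0.01% v/v).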

[2] = system: air pouch prostaglandin biosynthesis (Cox-2); test: Carrageenan induced air pouch prostaglandin biosynthesis model (CAP); type: in vivo, rat; details: for inhibition in vivo at 3 mg/kg: 4 h, read-out: CAP % Inhib. @ 3 mpk; for inhibition in vivo at 3 mg/kg / CAP % Inhib. @ 3 mpk: 3 mpk, rat
Procedure: To compare the mean responses of the treatment groups, analysis of variance was applied. Percent inhibition values were determined by comparing the individual treatment mean values to the mean of the control group. Linear regression was used to estimate IC50's/ED50's in appropriate assays.
Carrageenan induced air pouch prostaglandin biosynthesis model (CAP) Air pouches are formed in the backs of male Sprague Dawley rats by injecting 20 mL of sterile air on day 0. Three days later the pouch was reinflated with an additional 10 mL of sterile air. On day 7, 1 mL of saline containing 0.2 % lambda carrageenan (Sigma Chemical Co.) is injected into the pouch to induce the inflammatory reaction that is characterized by the release of prostaglandins. Test compounds are dosed at 0.1 to 10 mg/kg 30 minutes prior to carrageenan. Four hours after the carrageenan injection the pouch is lavaged and levels of prostaglandins are determined by enzyme immuno-assay using commercially available kits. […] Values for Cox-2 inhibition that are parenthetical indicate ED50 values.

[3] = target: T2, Human Whole Platelet Cyclooxygenase-1 (Homo sapiens, UniProt P23219); test: Human Whole Platelet Cyclooxygenase-1 assay (HWPX); type: cell-based; details: for IC50: read-out: HWPX IC50 (parenthetical value)
T2 construct: from tissue; host or cells: human blood: isolated platelets (A4) or heparinised whole blood (A9)
T2 sequence (P23219 24-599): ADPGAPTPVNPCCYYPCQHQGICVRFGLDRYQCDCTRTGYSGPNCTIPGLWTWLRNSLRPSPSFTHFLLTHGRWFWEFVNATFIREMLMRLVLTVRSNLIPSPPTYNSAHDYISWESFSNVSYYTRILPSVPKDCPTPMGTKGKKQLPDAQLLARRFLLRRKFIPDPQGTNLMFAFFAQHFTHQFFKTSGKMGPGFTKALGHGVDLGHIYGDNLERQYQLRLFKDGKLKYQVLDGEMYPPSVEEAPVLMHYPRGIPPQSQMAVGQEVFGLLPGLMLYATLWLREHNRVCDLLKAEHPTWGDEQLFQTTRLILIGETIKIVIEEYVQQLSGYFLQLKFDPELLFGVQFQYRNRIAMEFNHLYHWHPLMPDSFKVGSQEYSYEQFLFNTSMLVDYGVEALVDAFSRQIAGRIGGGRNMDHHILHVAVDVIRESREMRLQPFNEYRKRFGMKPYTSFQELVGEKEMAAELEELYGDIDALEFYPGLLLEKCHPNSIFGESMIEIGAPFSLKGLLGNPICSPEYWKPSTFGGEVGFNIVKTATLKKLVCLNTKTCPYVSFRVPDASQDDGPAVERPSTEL
Summary of the method: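 Thromboxane production was measured with a commercial kit after stimulation of washed human platelets (ACD-anticoagulated volunteer blood) by 8.8 μM final A23187 for 10 min. Test compounds were added 10 min before stimulus; cold 6 mM EDTA terminated the reaction.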

[4] = target: T3, recombinant human Cox-2 (r-hu Cox-2) (Homo sapiens, UniProt P35354); test: Recombinant human PGHS-2 enzyme assay (RHUCX2); type: biochemical; details: for IC50: read-out: RHUCX2 IC50 (parenthetical value)
T3 construct: made in house; host or cells: baculovirus/Sf9 insect cells (microsomes)
T3 sequence (P35354 18-604): T1 sequence (P35354 18-604)
Summary of the method: (§1)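 IC50 values come from linear regression of percent inhibition, itself calculated against the mean of untreated controls. The underlying signal is PGE2, determined by EIA after a brief room-temperature reaction (2.5 minutes) terminated with acid and then base-neutralized.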

[5] = target: T4, recombinant human Cox-1 (r-hu Cox1) (Homo sapiens, UniProt P23219); test: Recombinant human PGHS-1 enzyme assay (RHUCX1); type: biochemical; details: for inhibition at 100 µM / inhibition at 10 µM: read-out: RHUCX1 % Inh. at Dose; for inhibition at 100 µM / RHUCX1 % Inh. at Dose (μM): 100 μM
T4 construct: made in house; host or cells: baculovirus/Sf9 insect cells (microsomes)
T4 sequence (P23219 24-599): as above
Summary of the method: as §1

[6] = 0.01 μM, read-out: RHUCX2 % Inh. at Dose
[7] = 0.1 μM, read-out: RHUCX2 % Inh. at Dose
[8] = 1 μM, read-out: RHUCX2 % Inh. at Dose

Compound | IC50 [1] | melting point | IC50 [4] | inhibition at 100 µM [5] | inhibition in vivo at 3 mg/kg [2] | also measured
CS(=O)(=O)c1ccc(-c2cnn(-c3ccc(F)c(F)c3)c(=O)c2Cc2cccc(F)c2)cc1 [Example 243, 2-(3,4-Difluorophenyl)-4-(3-fluorobenzyl)-5-[4-(methylsulfonyl)phenyl]-3(2H)-pyridazinone] | 30 nM | 161 to 163 °C |  |  | 7% | 
CC(C)CCc1c(-c2ccc(S(C)(=O)=O)cc2)cnn(-c2ccc(F)c(F)c2)c1=O [Example 256] | 28 nM | 55 to 58 °C | 134 nM | 0% | 47% | IC50 [3]: 4700 nM
CC(C)(C)COc1c(-c2ccc(S(C)(=O)=O)cc2)cnn(-c2ccc(F)c(F)c2)c1=O [Example 349] | 41 nM | 126 to 128 °C | 86 nM | 0% | 63% | inhibition at 100 µM ([3]; 100 μM, read-out: HWPX % Inhib. at Dose): 34%
CC(C)=CCCOc1c(-c2ccc(S(C)(=O)=O)cc2)cnn(-c2ccc(F)c(F)c2)c1=O [Example 352, 2-(3,4-Difluorophenyl)-4-(4-methyl-3-penten-1-yloxy)-5-[4-(methylsulfonyl)phenyl]-5-3(2H)-pyridazinone] |  | 88 to 90 °C | 154 nM | 0% | 89% | IC50 [3]: 5500 nM; ED50 ([2]; Rattus norvegicus): 5 mg/kg
2-(2,3,3-Trifluorophenyl)-4-(4-fluorophenyl)-5-[4-(aminosulfonyl)phenyl]-3(2H)-pyridazinone [Example 450] | 50 nM |  |  |  |  | RHUCX2 % Inh. at Dose (μM) ([4]; 0.01 μM): 22 @ 0.01%; RHUCX2 % Inh. at Dose (μM) ([4]; 0.1 μM): 40 @ 0.1%; RHUCX2 % Inh. at Dose (μM) ([4]; 1 μM): 87 @ 1%; RHUCX1 % Inh. at Dose (μM) [5]: 29 @ 100%; CAP % Inhib. @ 3 mpk [2]: 86%
Cc1cc(-c2c(-c3ccc(S(C)(=O)=O)cc3)cnn(-c3ccc(F)cc3)c2=O)ccc1F [Example 245, 2-(4-Fluorophenyl)-4-(4-fluoro-3-methylphenyl)-5-[4-(methylsulfonyl)phenyl]-3(2H)-pyridazinone] | 46 nM | 245 to 247 °C | 1380 nM | 9% | 47% | 
CC(C)(O)COc1c(-c2ccc(S(C)(=O)=O)cc2)cnn(-c2ccc(F)c(F)c2)c1=O [Example 452, 2-(3,4-Difluorophenyl)-4-(2-hydroxy-2-methyl-1-propoxy)-5-[4-(methylsulfonyl)phenyl]-3(2H)-pyrridazinone] |  |  |  |  |  | Wish % Inhib. at Dose (μM) ([1]; 0.1 μM): 1 @ 0.1%; Wish % Inhib. at Dose (μM) ([1]; 1 μM): 56 @ 1%; RHUCX2 % Inh. at Dose (μM) ([4]; 1 μM): 15 @ 1%; RHUCX1 % Inh. at Dose (μM) [5]: 14 @ 100%; CAP % Inhib. @ 3 mpk [2]: 71%
CC(C)CCOc1c(-c2ccc(S(N)(=O)=O)cc2)cnn(-c2cccc(Cl)c2)c1=O [Example 394, 2-(3-Chlorophenyl)-4-(3-methylbutoxy)-5-[4-(aminosulfonyl)phenyl]-3(2H)-pyridazinone] | 19 nM | 137 to 139 °C |  | 86% | 70% | inhibition at 0.01 µM [4, 6]: 20%; inhibition at 0.1 µM [4, 7]: 64%; inhibition at 1 µM [4, 8]: 94%; inhibition at 10 µM [5]: 38%
2-(4-Fluorophenyl)-4-(4-fluorophenoxy)-5-[4-(aminosulfonyl)phenyl]-3(2H)-pyridazinone [Example 385] | 23 nM |  |  |  |  | IC50 [3]: 2180 nM; CAP % Inhib. @ 3 mpk [2]: 65%
CC(C)CCOc1c(-c2ccc(S(C)(=O)=O)cc2)cnn(C(C)(C)C)c1=O [Example 330, 2-(tert-Butyl)-4-(3-methylbutoxy)-5-[4-(methylsulfonyl)phenyl]-3(2H)-pyridazinone] | 5 nM |  |  | 15% | 4.5% | IC50 [3]: 16700 nM; inhibition at 0.01 µM [4, 6]: 5%; inhibition at 0.03 µM ([4]; 0.03 μM, read-out: RHUCX2 % Inh. at Dose): 72%; inhibition at 1 µM [4, 8]: 85%
CC(C)CCc1c(-c2ccc(S(C)(=O)=O)cc2)cnn(-c2ccc(F)c(Cl)c2)c1=O [Example 257, 2-(3-Chloro-4-fluorophenyl)-4-(3-methylbutyl)-5-[4-(methylsulfonyl)phenyl]-3(2H)-pyridazinone] |  | 55 to 58 °C | 40 nM | 0% | 60% | 

Second part, led by results:

IC50 [1] | melting point | IC50 [4] | inhibition at 100 µM [5] | Compound | inhibition in vivo at 3 mg/kg [2] | also measured
18 nM | 174 to 177 °C | 77 nM | 0% | CS(=O)(=O)c1ccc(-c2cnn(-c3cccc(Cl)c3)c(=O)c2Cc2ccccc2)cc1 [Example 367, 2-(3-Chlorophenyl)-4-benzyl-5-[4-(methylsulfonyl)phenyl]-3(2H)-pyridazinone] | 48% | inhibition at 0.3 µM ([3]; 0.3 μM, read-out: HWPX % Inhib. at Dose): 8%; inhibition at 1 µM ([3]; 1 μM, read-out: HWPX % Inhib. at Dose): 50%
20 nM | 167 to 170 °C |  | 56% | CC(C)CCc1c(-c2ccc(S(N)(=O)=O)cc2)cnn(-c2cccc(Cl)c2)c1=O [Example 392, 2-(3-Chlorophenyl)-4-(3-methylbutyl)-5-[4-(aminosulfonyl)phenyl]-3(2H)-pyridazinone] | 60% | IC50 [3]: 1950 nM; inhibition at 0.01 µM [4, 6]: 65%; inhibition at 0.1 µM [4, 7]: 82%; inhibition at 10 µM [5]: 35%
20 nM |  | 54 nM | 0% | CS(=O)(=O)c1ccc(-c2cnn(-c3ccc(F)c(Cl)c3)c(=O)c2C2CCCCC2)cc1 [Example 246, 2-(3-Chloro-4-fluorophenyl)-4-cyclohexyl-5-[4-(methylsulfonl)phenyl]-3(2H)-pyridazinone] | 48% | 
5 nM |  | 80 nM | 13% | CS(=O)(=O)c1ccc(-c2cnn(-c3ccc(F)c(Cl)c3)c(=O)c2Cc2ccccc2)cc1 [Example 248, 2-(3-Chloro-4-fluorophenyl)-4-benzyl-5-[4-(methylsulfonyl)phenyl]-3(2H)-pyridazinone] | 49% | inhibition at 10 µM ([3]; 10 μM, read-out: HWPX % Inhib. at Dose): 17%; inhibition at 30 µM ([3]; 30 μM, read-out: HWPX % Inhib. at Dose): 82%
7 nM | 191 to 194 °C | 76 nM | 62% | NS(=O)(=O)c1ccc(-c2cnn(CC=C(F)F)c(=O)c2-c2ccc(F)cc2)cc1 [Example 143, 2-(3,3-Difluoro-2-propenyl)-4-(4-fluorophenyl)-5-[4-(aminosulfonyl)phenyl]-3(2H)-pyridazinone] | 59% | inhibition at 10 µM [5]: 43%
23 nM | 166 to 169 °C | 1 nM | 5% | CC(C)COc1c(-c2ccc(S(C)(=O)=O)cc2)cnn(-c2cccc(Cl)c2)c1=O [Example 335, 2-(3-Chlorophenyl)-4-(2-methylpropoxy)-5-[4-(methylsulfonyl)phenyl]-3(2H)-pyridazinone] | 45% | 
1 nM |  |  |  | 2-(3-Methyl-2-butenyl)-4-(4-fluorophenyl)-5-[3-fluoro-4-(aminosulfonyl)phenyl]-3(2H)-pyridazinone [Example 123] |  | HWPX % Inhib. at Dose (μM) ([3]; 0.1 μM): 29 @ .1%; HWPX % Inhib. at Dose (μM) ([3]; 1 μM): 90 @ 1%; CAP % Inhib. @ 3 mpk [2]: 23%
